Among the data in ChEMBL document CHEMBL5678818, “Discovery of potent SOS1 inhibitors that block RAS activation via disruption of the RAS-SOS1 interaction” (Proc Natl Acad Sci U S A, 2019) are Activity values, retold here.

For experiment [1], the target named is T1, Mitogen-activated protein kinase kinase kinase 15 (Homo sapiens) (UniProt Q6ZN16).
T1 sequence (whole entry): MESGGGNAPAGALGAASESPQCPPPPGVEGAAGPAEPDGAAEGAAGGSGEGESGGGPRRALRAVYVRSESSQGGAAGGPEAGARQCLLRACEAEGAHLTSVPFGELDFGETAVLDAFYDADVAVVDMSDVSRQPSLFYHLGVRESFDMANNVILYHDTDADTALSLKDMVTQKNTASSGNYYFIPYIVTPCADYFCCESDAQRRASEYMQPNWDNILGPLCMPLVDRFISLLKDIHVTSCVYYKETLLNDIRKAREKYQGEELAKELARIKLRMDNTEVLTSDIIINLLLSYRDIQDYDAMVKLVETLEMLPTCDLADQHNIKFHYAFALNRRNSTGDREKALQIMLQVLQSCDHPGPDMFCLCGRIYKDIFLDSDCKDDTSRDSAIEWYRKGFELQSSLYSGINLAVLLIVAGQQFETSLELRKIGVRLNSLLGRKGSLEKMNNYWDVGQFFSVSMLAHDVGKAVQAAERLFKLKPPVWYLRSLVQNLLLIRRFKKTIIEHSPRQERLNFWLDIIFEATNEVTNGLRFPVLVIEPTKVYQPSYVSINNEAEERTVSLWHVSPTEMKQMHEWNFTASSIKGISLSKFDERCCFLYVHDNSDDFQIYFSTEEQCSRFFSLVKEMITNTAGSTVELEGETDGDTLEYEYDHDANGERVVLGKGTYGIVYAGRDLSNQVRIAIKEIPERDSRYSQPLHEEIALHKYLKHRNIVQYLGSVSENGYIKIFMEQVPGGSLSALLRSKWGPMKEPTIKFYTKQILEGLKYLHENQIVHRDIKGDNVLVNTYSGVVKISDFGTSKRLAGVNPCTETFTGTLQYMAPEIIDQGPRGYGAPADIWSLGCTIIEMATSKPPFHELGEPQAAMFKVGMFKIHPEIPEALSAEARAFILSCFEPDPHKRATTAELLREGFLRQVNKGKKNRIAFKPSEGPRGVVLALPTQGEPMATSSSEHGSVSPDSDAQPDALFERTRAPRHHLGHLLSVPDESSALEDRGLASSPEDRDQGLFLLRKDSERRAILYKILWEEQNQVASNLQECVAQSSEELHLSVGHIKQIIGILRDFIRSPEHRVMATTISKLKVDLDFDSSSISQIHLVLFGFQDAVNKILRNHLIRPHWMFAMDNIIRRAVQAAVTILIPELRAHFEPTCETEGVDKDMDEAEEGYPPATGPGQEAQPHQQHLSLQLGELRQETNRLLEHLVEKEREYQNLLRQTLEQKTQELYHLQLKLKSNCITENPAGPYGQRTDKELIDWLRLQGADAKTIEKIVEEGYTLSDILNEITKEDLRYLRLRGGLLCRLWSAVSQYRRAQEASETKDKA
Nature of the experiment: Inhibition of MAP3K15 (unknown origin) assessed as residual activity at 1000 nM by KINOMEscan analysis relative to control.

Experiment [2] deals with Serine/threonine-protein kinase MRCK alpha (Homo sapiens) (UniProt Q5VT25). Description: Inhibition of MRCKA (unknown origin) assessed as residual activity at 1000 nM by KINOMEscan analysis relative to control.
For experiment [3], the system named is Proto-oncogene tyrosine-protein kinase receptor Ret (Homo sapiens), P07949 [V804M]. Description: Inhibition of RET V804M mutant (unknown origin) assessed as residual activity at 1000 nM by KINOMEscan analysis relative to control.
For experiment [4], the target named is T2, Serine/threonine-protein kinase TBK1 (Homo sapiens) (UniProt Q9UHD2).
T2 sequence (whole entry): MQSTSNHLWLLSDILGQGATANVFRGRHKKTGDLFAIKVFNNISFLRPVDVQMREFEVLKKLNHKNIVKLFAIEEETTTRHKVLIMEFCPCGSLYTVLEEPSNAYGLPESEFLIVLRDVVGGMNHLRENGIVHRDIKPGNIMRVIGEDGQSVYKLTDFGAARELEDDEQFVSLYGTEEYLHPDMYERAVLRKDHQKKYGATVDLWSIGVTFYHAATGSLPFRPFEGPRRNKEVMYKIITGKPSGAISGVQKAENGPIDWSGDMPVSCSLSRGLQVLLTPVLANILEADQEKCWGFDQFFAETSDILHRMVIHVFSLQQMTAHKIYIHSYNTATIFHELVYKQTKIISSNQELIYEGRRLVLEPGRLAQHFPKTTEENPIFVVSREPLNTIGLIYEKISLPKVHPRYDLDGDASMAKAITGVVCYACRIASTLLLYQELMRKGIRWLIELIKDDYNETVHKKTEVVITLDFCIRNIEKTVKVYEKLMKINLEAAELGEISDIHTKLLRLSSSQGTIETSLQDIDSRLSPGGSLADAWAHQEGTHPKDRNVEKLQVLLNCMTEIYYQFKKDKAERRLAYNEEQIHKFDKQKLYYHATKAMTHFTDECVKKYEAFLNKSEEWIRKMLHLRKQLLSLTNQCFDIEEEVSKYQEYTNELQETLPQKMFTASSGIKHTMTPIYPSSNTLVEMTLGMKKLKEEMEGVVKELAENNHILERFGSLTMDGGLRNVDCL
Description: Inhibition of TBK1 (unknown origin) assessed as residual activity at 1000 nM by KINOMEscan analysis relative to control.

Chain of Proto-oncogene tyrosine-protein kinase receptor Ret (Homo sapiens), P07949 [V804M] (P07949 whole entry V804M): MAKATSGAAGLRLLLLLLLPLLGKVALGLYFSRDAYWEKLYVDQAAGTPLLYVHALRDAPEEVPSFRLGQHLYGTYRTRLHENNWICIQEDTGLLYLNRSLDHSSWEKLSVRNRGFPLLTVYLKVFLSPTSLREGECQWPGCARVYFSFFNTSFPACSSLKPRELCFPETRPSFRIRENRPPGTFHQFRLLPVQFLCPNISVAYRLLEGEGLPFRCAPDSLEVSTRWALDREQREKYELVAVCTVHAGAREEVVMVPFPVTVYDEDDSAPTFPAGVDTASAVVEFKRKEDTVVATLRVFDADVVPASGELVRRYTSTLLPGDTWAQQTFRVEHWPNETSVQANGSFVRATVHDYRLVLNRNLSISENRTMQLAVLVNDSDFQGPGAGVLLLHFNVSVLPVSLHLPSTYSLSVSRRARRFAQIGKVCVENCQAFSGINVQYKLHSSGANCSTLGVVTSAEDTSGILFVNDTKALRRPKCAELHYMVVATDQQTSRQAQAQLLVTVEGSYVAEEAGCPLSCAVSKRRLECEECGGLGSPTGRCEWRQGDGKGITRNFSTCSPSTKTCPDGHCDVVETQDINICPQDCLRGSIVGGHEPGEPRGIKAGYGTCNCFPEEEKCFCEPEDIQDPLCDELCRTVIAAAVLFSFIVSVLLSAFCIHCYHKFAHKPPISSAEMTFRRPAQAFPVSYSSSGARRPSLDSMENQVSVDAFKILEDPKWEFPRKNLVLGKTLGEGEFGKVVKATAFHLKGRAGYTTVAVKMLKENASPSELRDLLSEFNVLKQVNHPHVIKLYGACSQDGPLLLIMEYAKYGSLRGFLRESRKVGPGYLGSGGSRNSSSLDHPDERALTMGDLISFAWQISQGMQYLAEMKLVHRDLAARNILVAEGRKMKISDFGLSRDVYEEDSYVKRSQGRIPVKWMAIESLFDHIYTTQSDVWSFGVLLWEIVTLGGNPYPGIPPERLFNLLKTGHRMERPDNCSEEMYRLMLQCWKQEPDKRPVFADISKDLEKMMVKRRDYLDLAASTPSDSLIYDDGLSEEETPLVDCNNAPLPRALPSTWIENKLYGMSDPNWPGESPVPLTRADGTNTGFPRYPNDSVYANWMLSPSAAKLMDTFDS
Chain of Serine/threonine-protein kinase MRCK alpha (Homo sapiens) (Q5VT25 whole entry): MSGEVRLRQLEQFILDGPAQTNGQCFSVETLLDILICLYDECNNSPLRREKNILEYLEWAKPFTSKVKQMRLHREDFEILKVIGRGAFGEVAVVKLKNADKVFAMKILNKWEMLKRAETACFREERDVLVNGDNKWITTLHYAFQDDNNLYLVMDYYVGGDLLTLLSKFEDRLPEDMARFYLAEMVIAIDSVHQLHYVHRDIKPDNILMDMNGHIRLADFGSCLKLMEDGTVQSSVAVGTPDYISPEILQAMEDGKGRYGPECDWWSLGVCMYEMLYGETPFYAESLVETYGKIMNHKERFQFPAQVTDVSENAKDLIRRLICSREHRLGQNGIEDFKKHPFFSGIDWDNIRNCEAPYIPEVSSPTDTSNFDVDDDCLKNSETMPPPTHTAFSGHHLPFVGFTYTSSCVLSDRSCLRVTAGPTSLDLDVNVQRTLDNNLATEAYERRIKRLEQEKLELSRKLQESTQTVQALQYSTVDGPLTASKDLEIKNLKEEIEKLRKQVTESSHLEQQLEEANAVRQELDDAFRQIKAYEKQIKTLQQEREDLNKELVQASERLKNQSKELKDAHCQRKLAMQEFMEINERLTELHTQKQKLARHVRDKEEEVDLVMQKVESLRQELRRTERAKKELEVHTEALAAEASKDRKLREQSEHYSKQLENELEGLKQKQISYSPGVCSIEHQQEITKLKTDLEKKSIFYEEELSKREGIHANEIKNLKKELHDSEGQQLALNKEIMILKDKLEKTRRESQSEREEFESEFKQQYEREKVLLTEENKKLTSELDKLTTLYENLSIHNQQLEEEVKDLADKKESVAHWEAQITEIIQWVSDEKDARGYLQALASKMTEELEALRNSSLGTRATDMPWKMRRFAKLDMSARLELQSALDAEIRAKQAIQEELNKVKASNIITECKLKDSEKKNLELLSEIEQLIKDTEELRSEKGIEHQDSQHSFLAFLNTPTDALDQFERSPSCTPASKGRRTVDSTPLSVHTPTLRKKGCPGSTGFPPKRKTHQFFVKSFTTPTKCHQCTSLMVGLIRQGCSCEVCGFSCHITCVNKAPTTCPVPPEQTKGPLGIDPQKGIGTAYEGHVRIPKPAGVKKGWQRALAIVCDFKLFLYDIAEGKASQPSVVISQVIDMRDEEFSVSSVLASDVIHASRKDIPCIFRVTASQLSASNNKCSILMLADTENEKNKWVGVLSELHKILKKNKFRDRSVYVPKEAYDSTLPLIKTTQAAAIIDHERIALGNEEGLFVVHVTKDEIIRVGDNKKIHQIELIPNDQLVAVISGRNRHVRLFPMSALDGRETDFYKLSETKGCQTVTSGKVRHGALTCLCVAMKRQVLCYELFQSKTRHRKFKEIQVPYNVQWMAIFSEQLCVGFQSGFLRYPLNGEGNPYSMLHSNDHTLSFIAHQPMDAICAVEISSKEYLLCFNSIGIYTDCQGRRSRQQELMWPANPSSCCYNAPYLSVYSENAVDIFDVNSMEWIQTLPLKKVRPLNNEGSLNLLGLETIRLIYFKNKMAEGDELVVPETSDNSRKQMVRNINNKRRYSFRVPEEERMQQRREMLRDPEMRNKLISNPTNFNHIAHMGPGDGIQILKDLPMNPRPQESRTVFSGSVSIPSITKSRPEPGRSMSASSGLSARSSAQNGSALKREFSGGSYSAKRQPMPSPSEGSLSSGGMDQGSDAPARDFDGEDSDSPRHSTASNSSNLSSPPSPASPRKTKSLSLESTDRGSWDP

For `COc1cc2nc(C)nc(N[C@H](C)c3cccc(-c4cn[nH]c4)c3)c2cc1OC`, the Activity in experiment [1] was found to be 63%; in experiment [2], 94%; in experiment [3], 92%; in experiment [4], 66%.
As to `COc1cc2ncnc(N[C@H](C)c3cccc4ccccc34)c2cc1OC`, the Activity in experiment [1] came to 80%; in experiment [2] it was 100%; in experiment [3], 100%; in experiment [4], 100%.
